These results are taken from US20200093852A1, “Methods of Treating Ocular Disorders” (priority 2016, published 2020).

Structures can show the parent of a compound that is named as a salt.

One assay concerns the target T1, Recombinant human active heparanase (Homo sapiens, UniProt Q9Y251).
T1 construct: Recombinant human active heparanase derived from Chinese hamster ovary cells; purchased R&D Systems; host or cells: Chinese hamster ovary cells
T1 sequence (Q9Y251 158-543 limits assumed): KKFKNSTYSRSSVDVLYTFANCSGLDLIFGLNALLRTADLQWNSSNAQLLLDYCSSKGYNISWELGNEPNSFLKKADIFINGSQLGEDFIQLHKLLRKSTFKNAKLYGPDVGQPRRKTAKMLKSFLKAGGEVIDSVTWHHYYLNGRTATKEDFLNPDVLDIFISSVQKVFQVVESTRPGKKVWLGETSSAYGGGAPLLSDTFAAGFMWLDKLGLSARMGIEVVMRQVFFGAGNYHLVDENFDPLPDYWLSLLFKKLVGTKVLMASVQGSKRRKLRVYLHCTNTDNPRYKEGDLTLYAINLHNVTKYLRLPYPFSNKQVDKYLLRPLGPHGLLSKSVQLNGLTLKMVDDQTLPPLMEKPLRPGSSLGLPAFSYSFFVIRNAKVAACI
T1 sequence (Q9Y251 36-109 limits assumed): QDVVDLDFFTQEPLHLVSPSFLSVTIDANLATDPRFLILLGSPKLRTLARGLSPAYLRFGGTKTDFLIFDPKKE
The assay can be described thus: Heparanase enzyme inhibition assay (fondaparinux substrate, WST-1 detection). The format is biochemical. The settings on record: IC50 heparanase inhibition by compounds of Formula 1, Table 3. On the procedure:
Recombinant human active heparanase derived from Chinese hamster ovary cells was from R&D Systems. […] The plates were washed three times with PBST, shaken dry, and stored for up to two weeks at 4° C. before use. […] Following initiation of the reaction by addition of fondaparinux, the plate was sealed with adhesive film and incubated at 37° C. for 20-24 h.
Test compounds were dissolved and added to the assay at varying concentrations to calculate the level of inhibition.
For orientation: Tetrazolium dyes change colour on reduction, which living cells bring about.
Usually IC50 stands for the concentration needed to halve the response being measured. Take `COc1cc2nc(-c3cccc4cccnc34)nc(NCCc3ccccc3)c2cc1OC` [BT-2164]: the IC50 was determined as 6.1 µM.

Still in this assay, the particulars now being: IC50 heparanase inhibition by compounds of Formula 2-4, Table 4.
Turning to `CCOC(=O)CSc1nc2cc(OC)c(OC)cc2c(=N)n1CCNC(=O)c1cc2ccccc2[nH]1` [BT-2136], the 50% inhibitory concentration (IC50) stood at 26.8 µM.

Still in this assay, the particulars now being: Table 3; read-out: IC50 heparanase inhibition by compounds of Formula 1.
As for `COc1cc2nc(-c3ccc4c(c3)OCCO4)nc(NCCc3c[nH]c4ccccc34)c2cc1OC` [BT-2171], the IC50 amounted to 14 µM. Regarding `COc1cc2nc(NCCNC(=O)c3nnc(-c4cc5ccccc5[nH]4)o3)nc(N)c2cc1OC` [BT-2173], the IC50 stood at 4.3 µM. For `COc1cc2nc(N3CC(NC(=O)c4nnc(-c5ccccc5)o4)C3)nc(N)c2cc1OC` [BT-2167], the IC50 stood at 33 µM. For the compound `COC(=O)c1ccc2c(S(=O)(=O)NC3CN(c4nc(N)c5cc(OC)c(OC)cc5n4)C3)c[nH]c2c1` [BT-2148], the half-inhibitory concentration (IC50) is 20.5 µM. Still for that read-out and setting: the result for `COc1cc2nc(-c3cccc4cccnc34)nc(NCCc3ccccn3)c2cc1OC` [BT-2178] reads 11 µM; that for `COc1cc2nc(NCCNC(=N)N)nc(NCCc3c[nH]c4ccccc34)c2cc1OC` [BT-2182], 18 µM; that for `COc1cc2nc(-c3cccc4cccnc34)nc(NCCNS(=O)(=O)c3ccccc3)c2cc1OC` [BT-2184], 3.39 µM. With `COc1cc2nc(-c3cccc4cccnc34)nc(NCCNC(=N)N)c2cc1OC` [BT-2181], the IC50 turned out to be 11 µM. Consider `COc1cc2nc(N3CCN(C(=O)C4COc5ccccc5O4)CC3)nc(N)c2cc1OC` (stereo not shown) [BT-2013, doxazosin mesylate, reference compound], for which the IC50 was 57.5 µM.

For the compound `COc1cc2nc(-c3ccccc3CN3CCOCC3)nc(NCCc3c[nH]c4ccccc34)c2cc1OC` [BT-2090], the IC50 turned out to be 53.6 µM. With `COc1cc2nc(-c3cccc4cccnc34)nc(NCCNC(=O)c3nnc(-c4ccccc4)o3)c2cc1OC` [BT-2187], the IC50 is 4.1 µM. The same measure, in the same setting: the result for `COc1cc2nc(-c3ccc4[nH]ccc4c3)nc(NCCc3c[nH]c4ccccc34)c2cc1OC` [BT-2005] reads 41 µM; that for `COc1cc2nc(NCCNC(=O)c3nnc(-c4ccccc4)o3)nc(NCCc3ccccc3)c2cc1OC` [BT-2170], 55 µM; that for `COc1cc2nc(NCCNC(=O)c3nnc(-c4cccc(F)c4)o3)nc(N)c2cc1OC` [BT-2185], 22 µM. On the same count and under the same terms, the result for `COc1cc2nc(-c3cncc4ccccc34)nc(NCCc3c[nH]c4ccccc34)c2cc1OC` [BT-2007] reads 92.7 µM. With `COc1cc2nc(NCCNC(=O)c3cc(-c4ccccc4)on3)nc(N)c2cc1OC` [BT-2161], the IC50 is 18.9 µM. As to `COc1cc2nc(NCCNC(=O)c3nnc(-c4ccccc4)s3)nc(N)c2cc1OC` [BT-2229], the IC50 is 13.4 µM.

As for `COc1cc2nc(-c3ccc4ccccc4c3)nc(NCCc3c[nH]c4ccccc34)c2cc1OC` [BT-2057], the IC50 came out at 56 µM. Consider `COc1cc2nc(-c3cccc4cccnc34)nc(NC3CN(C(=O)c4cc5ccccc5[nH]4)C3)c2cc1OC` [BT-2120], for which the IC50 came to 0.7 µM. Same read-out and setting: the result for `COc1cc2nc(NCCNC(=O)c3nnc(-c4cc5ccccc5[nH]4)o3)nc(N)c2cc1OC` [BT-2169] reads 3.3 µM. With `COc1cc2nc(NCCc3ccccn3)nc(NCCc3c[nH]c4ccccc34)c2cc1OC` [BT-2179], the IC50 is 18 µM. In the case of `COc1cc2nc(-c3cccc4cccnc34)nc(NCCc3c[nH]c4ccccc34)c2cc1OC` [BT-2062], the IC50 is 1 µM. As for `COc1cc2nc(NCCNC(=O)c3nnc(-c4c[nH]c5ncccc45)o3)nc(N)c2cc1OC` [BT-2177], the IC50 came out at 21 µM.

The assay is the same for the next values; noted with them: Table 4; read-out: IC50 heparanase inhibition by compounds of Formula 2-4.
With `COc1cc2[nH]c(=S)n(CCNC(=O)c3c[nH]c4c(O)cccc34)c(=N)c2cc1OC` [BT-2103], the half-maximal inhibitory concentration (IC50) turned out to be 10.7 µM. As to `COc1cc2[nH]c(=S)n(CCNC(=O)c3n[nH]c4ccccc34)c(=N)c2cc1OC` [BT-2100], the half-maximal inhibitory concentration (IC50) worked out at 37 µM.

Regarding `COc1cc2nc(SC)n(CCNC(=O)c3cc4ccccc4[nH]3)c(=N)c2cc1OC` [BT-2134], the IC50 is 24.9 µM. For `COc1cc2nc(SCc3ccc(OC(F)(F)F)cc3)n(CCNC(=O)c3cc4cc(-c5cccnc5)ccc4[nH]3)c(=N)c2cc1OC` [BT-2153], the IC50 was 5.7 µM. Same read-out and setting: the value for `COc1cc2[nH]c(=S)n(CCNC(=O)c3cc4ccc(-c5cccnc5)cc4[nH]3)c(=N)c2cc1OC` [BT-2072] was 3.1 µM. Still for that read-out and setting: the value for `COc1cc2[nH]c(=S)n(CCNC(=O)c3cc(-c4ccccc4)on3)c(=N)c2cc1OC` [BT-2133] was 31.7 µM. Same read-out and setting: the value for `COc1ccc(-c2ccc3[nH]c(C(=O)NCCn4c(=S)[nH]c5cc(OC)c(OC)cc5c4=N)cc3c2)cn1` [BT-2066] was 4.2 µM; that for `COc1cc2[nH]c(=S)n(CCNC(=O)c3cc4cc(-c5ccc(C(=O)N6CCN(C)CC6)cc5)ccc4[nH]3)c(=N)c2cc1OC` [BT-2068] was 2.8 µM. As to `COc1cc2nc(SCc3ccc(C(F)(F)F)cc3)n(CCNC(=O)c3cc4ccc(-c5cccnc5)cc4[nH]3)c(=N)c2cc1OC` [BT-2138], the IC50 is 5.9 µM. In the case of `COc1cc2[nH]c(=S)n(CCNC(=O)c3cc4ccccc4[nH]3)c(=N)c2cc1OC` [BT-2058], the IC50 is 9 µM. Consider `COc1cc2nc(SCc3ccc(C(F)(F)F)cc3)n(CCNC(=O)c3cc4cc(-c5cccnc5)ccc4[nH]3)c(=N)c2cc1OC` [BT-2152], for which the IC50 is 2.89 µM. `COc1cc2[nH]c(=S)n(CCNC(=O)c3ccc(-c4ccccc4)[nH]3)c(=N)c2cc1OC` [BT-2113]: the 50% inhibitory concentration (IC50) came out at 10.6 µM.

Turning to `COc1cc2[nH]c(=S)n(CCNC(=O)c3c[nH]c4ccccc34)c(=N)c2cc1OC` [BT-2071], the IC50 was determined as 7 µM. Turning to `COc1cc2[nH]c(=S)n(CCNC(=O)c3cc4cc(-c5cccnc5)ccc4[nH]3)c(=N)c2cc1OC` [BT-2070], the IC50 came to 1 µM.

For `COc1cc2nc(SCc3cccc(C(F)(F)F)c3)n(CCNC(=O)c3cc4ccc(-c5cccnc5)cc4[nH]3)c(=N)c2cc1OC` [BT-2137], the IC50 amounted to 28 µM.
